PubChem BioAssay AID330 (DTP/NCI, 2004)
Where “and” joins values, the source holds several entries; their conditions need not be identical. Equal values may be shown once. Inconclusive results and toxic doses are left out.

Test system: P388 leukemia ip, CD2F1 mice, survival T/C
Assay: NCI In Vivo Anticancer Drug Screen. Data for tumor model P388 Leukemia (intraperitoneal) in CD2F1 (CDF1) mice
Settings: endpoint: median survival time, higher = longer survival
Procedure: The antitumor activity of compounds was measured in mice bearing transplantable tumors. Survival or tumor size were measured and the results are expressed as the measurement made in the treated group (T) divided by the measurement made in the vehicle treated control group (C). The tumor model used in this assay is P388 Leukemia (intraperitoneal) in CD2F1 (CDF1) mice

[1] = dose: 150.0 mg/kg/injection, schedule: Q04DX003 (ip), vehicle: saline with Tween-80
[2] = dose: 50.0 mg/kg/injection, schedule: Q01DX009 (ip), vehicle: Klucel (hydroxypropylcellulose) (HPC)
[3] = dose: 100.0 mg/kg/injection, schedule: Q01DX009 (ip), vehicle: Klucel (hydroxypropylcellulose) (HPC)
[4] = dose: 60.0 mg/kg/injection, schedule: Q01DX005 (ip), vehicle: saline with Tween-80
[5] = dose: 120.0 mg/kg/injection, schedule: Q01DX005 (ip), vehicle: saline with Tween-80
[6] = dose: 200.0 mg/kg/injection, schedule: Q01DX009 (ip), vehicle: Klucel (hydroxypropylcellulose) (HPC)
[7] = dose: 100.0 mg/kg/injection, schedule: Q01DX009 (ip), vehicle: saline with Tween-80
[8] = dose: 200.0 mg/kg/injection, schedule: Q01DX009 (ip), vehicle: saline with Tween-80
[9] = dose: 100.0 mg/kg/injection, schedule: Q04DX003 (ip), vehicle: saline with Tween-80
[10] = dose: 50.0 mg/kg/injection, schedule: Q01DX005 (ip), vehicle: saline with Tween-80
[11] = dose: 100.0 mg/kg/injection, schedule: Q01DX005 (ip), vehicle: saline with Tween-80
[12] = dose: 200.0 mg/kg/injection, schedule: Q01DX005 (ip), vehicle: saline with Tween-80
[13] = dose: 240.0 mg/kg/injection, schedule: Q01DX005 (ip), vehicle: saline with Tween-80

NNC(=O)c1nc2ccccc2s1
T/C (dose: 37.5 mg/kg/injection, schedule: Q04DX003 (ip), vehicle: saline with Tween-80): 100 % of control | T/C (dose: 75.0 mg/kg/injection, schedule: Q04DX003 (ip), vehicle: saline with Tween-80): 100 % of control | T/C [1]: 95 % of control

FC(F)(F)COP1OCCS1 (stereo unspecified)
T/C (dose: 12.5 mg/kg/injection, schedule: Q04DX002 (ip), vehicle: saline with Tween-80): 99 % of control | T/C (dose: 25.0 mg/kg/injection, schedule: Q04DX002 (ip), vehicle: saline with Tween-80): 99 % of control | T/C (dose: 50.0 mg/kg/injection, schedule: Q04DX002 (ip), vehicle: saline with Tween-80): 98 % of control | T/C (dose: 100.0 mg/kg/injection, schedule: Q04DX002 (ip), vehicle: saline with Tween-80): 100 % of control | T/C (dose: 200.0 mg/kg/injection, schedule: Q04DX002 (ip), vehicle: saline with Tween-80): 104 % of control

CCSCC1C(=O)C23CC1CCC2C12COC(O)C1C(C)(C)C(O)CC2OC3=O (stereo unspecified)
T/C (dose: 3.12 mg/kg/injection, schedule: Q01DX009 (ip), vehicle: Klucel (hydroxypropylcellulose) (HPC)): 103 % of control | T/C (dose: 6.25 mg/kg/injection, schedule: Q01DX009 (ip), vehicle: Klucel (hydroxypropylcellulose) (HPC)): 107 % of control | T/C (dose: 12.5 mg/kg/injection, schedule: Q01DX009 (ip), vehicle: Klucel (hydroxypropylcellulose) (HPC)): 103 % of control | T/C [2]: 109 % of control | T/C [3]: 107 % of control

CCCCN1C(=O)C2C3CCC(O3)C2C1=O (stereo unspecified)
T/C [4]: 100 % of control | T/C [5]: 92 % of control

COc1ccc2c(N)c3c4ccccc4cc[n+]3cc2c1OC
T/C (dose: 3.13 mg/kg/injection, schedule: Q04DX003 (ip), vehicle: water): 106 % of control and 112 % of control | T/C (dose: 6.25 mg/kg/injection, schedule: Q04DX003 (ip), vehicle: water): 106 % of control and 114 % of control | T/C (dose: 12.5 mg/kg/injection, schedule: Q04DX003 (ip), vehicle: water): 112 % of control | T/C (dose: 25.0 mg/kg/injection, schedule: Q04DX003 (ip), vehicle: water): 121 % of control

C[CH2][Sn]([CH2]C)([N]=C=S)[N]=C=S
T/C (dose: 3.12 mg/kg/injection, schedule: Q01DX009 (ip), vehicle: saline): 99 % of control and 100 % of control | T/C (dose: 6.25 mg/kg/injection, schedule: Q01DX009 (ip), vehicle: saline): 86 % of control and 93 % of control

CC(=O)OCc1c(COC(C)=O)c(C(F)(F)F)n2c1CCC2
T/C [2]: 90 % of control | T/C [3]: 93 % of control | T/C [6]: 104 % of control

O=C1c2ccccc2C(=O)N1CNc1cccc(NCN2C(=O)c3ccccc3C2=O)c1
T/C [7]: 110 % of control | T/C [8]: 95 % of control | T/C (dose: 400.0 mg/kg/injection, schedule: Q01DX009 (ip), vehicle: saline with Tween-80): 100 % of control

NC(=S)N/N=C\c1nccc2c(C(F)(F)F)cccc12
T/C (dose: 1.5 mg/kg/injection, schedule: Q04DX003 (ip), vehicle: saline with Tween-80): 91 % of control | T/C (dose: 3.0 mg/kg/injection, schedule: Q04DX003 (ip), vehicle: saline with Tween-80): 95 % of control | T/C (dose: 6.0 mg/kg/injection, schedule: Q04DX003 (ip), vehicle: saline with Tween-80): 99 % of control | T/C (dose: 12.0 mg/kg/injection, schedule: Q04DX003 (ip), vehicle: saline with Tween-80): 91 % of control

CC(C)n1c(Cl)c(C=O)c2ccccc21
T/C (dose: 100.0 mg/kg/injection, schedule: Q01DX001 (ip), vehicle: Klucel (hydroxypropylcellulose) (HPC)): 94 % of control | T/C (dose: 200.0 mg/kg/injection, schedule: Q01DX001 (ip), vehicle: Klucel (hydroxypropylcellulose) (HPC)): 87 % of control | T/C (dose: 400.0 mg/kg/injection, schedule: Q01DX001 (ip), vehicle: Klucel (hydroxypropylcellulose) (HPC)): 98 % of control

COc1ccc(CC(=O)NCCc2ccc3cc(OC)c(OC)cc3c2)cc1OC
T/C [9]: 100 % of control | T/C (dose: 200.0 mg/kg/injection, schedule: Q04DX003 (ip), vehicle: saline with Tween-80): 100 % of control | T/C (dose: 400.0 mg/kg/injection, schedule: Q04DX003 (ip), vehicle: saline with Tween-80): 100 % of control

COC(=O)/C(C)=N/SC(c1ccccc1)(c1ccccc1)c1ccccc1
T/C [10]: 102 % of control | T/C [11]: 104 % of control | T/C [12]: 98 % of control

Cc1ccc(N2C(=O)CC3(CCCC3)C2=O)cc1Cl
T/C [2]: 104 % of control | T/C [3]: 108 % of control | T/C [6]: 105 % of control

O=C(CSCc1c(F)cccc1Cl)Nc1ccc(F)c(Cl)c1
T/C [4]: 97 % of control | T/C [5]: 91 % of control | T/C [13]: 91 % of control

Oc1ccc(C[n+]2ccccc2)cc1O
T/C (dose: 3.12 mg/kg/injection, schedule: Q01DX005 (ip), vehicle: saline): 101 % of control and 97 % of control | T/C (dose: 6.25 mg/kg/injection, schedule: Q01DX005 (ip), vehicle: saline): 102 % of control and 103 % of control | T/C (dose: 12.5 mg/kg/injection, schedule: Q01DX005 (ip), vehicle: saline): 100 % of control and 105 % of control | T/C (dose: 25.0 mg/kg/injection, schedule: Q01DX005 (ip), vehicle: saline): 92 % of control and 97 % of control

N#CCCSC(=S)N1CCN(C(=S)SCCC#N)C1=O
T/C [10]: 92 % of control | T/C [11]: 87 % of control | T/C [12]: 92 % of control

CCC(C)C(N)C(=O)O (stereo unspecified)
T/C [2]: 109 % of control | T/C [3]: 94 % of control | T/C [6]: 105 % of control

Nc1nc2ccc([N+](=O)[O-])cc2[nH]1
T/C [2]: 99 % of control | T/C [3]: 101 % of control | T/C [6]: 90 % of control

C=C1CC[C@H]2C(C)=CC[C@@H]3[C@H](OC(=O)[C@H]3COC)[C@@H]12
T/C (dose: 100.0 mg/kg/injection, schedule: Q01DX001 (ip), vehicle: saline): 107 % of control | T/C (dose: 200.0 mg/kg/injection, schedule: Q01DX001 (ip), vehicle: saline): 97 % of control | T/C (dose: 400.0 mg/kg/injection, schedule: Q01DX001 (ip), vehicle: saline): 103 % of control

Cn1cnc([N+](=O)[O-])c1Sc1ccc(Cl)cc1
T/C (dose: 0.79 mg/kg/injection, schedule: Q01DX009 (ip), vehicle: saline with Tween-80): 104 % of control | T/C (dose: 1.56 mg/kg/injection, schedule: Q01DX009 (ip), vehicle: saline with Tween-80): 104 % of control | T/C (dose: 3.12 mg/kg/injection, schedule: Q01DX009 (ip), vehicle: saline with Tween-80): 97 % of control

CC(C)(C)C(=O)CC(Cc1nccc2ccccc12)c1ccccc1 (stereo unspecified)
T/C (dose: 50.0 mg/kg/injection, schedule: Q01DX009 (ip), vehicle: saline with Tween-80): 106 % of control | T/C [7]: 104 % of control | T/C [8]: 103 % of control

O=C1COC(C(=O)c2ccccc2)C(=O)N1 (stereo unspecified)
T/C [4]: 98 % of control | T/C [5]: 95 % of control | T/C [13]: 95 % of control

CN(N=O)C(=O)Nc1c[nH]c(=O)[nH]c1=O
T/C (dose: 25.0 mg/kg/injection, schedule: Q01DX009 (ip), vehicle: saline sonified): 186 % of control | T/C (dose: 25.0 mg/kg/injection, schedule: Q04DX003 (ip), vehicle: saline with Tween-80): 190 % of control | T/C (dose: 50.0 mg/kg/injection, schedule: Q01DX009 (ip), vehicle: saline sonified): 200 % of control | T/C (dose: 50.0 mg/kg/injection, schedule: Q04DX003 (ip), vehicle: saline with Tween-80): 195 % of control | T/C (dose: 66.0 mg/kg/injection, schedule: Q04DX003 (ip), vehicle: saline with Tween-80): 163 % of control | T/C [9]: 186 % of control and 190 % of control | T/C [1]: 90 % of control

Nc1cccc2c1C(=O)c1cccc3snc-2c13
T/C (dose: 12.5 mg/kg/injection, schedule: Q01DX005 (ip), vehicle: Klucel (hydroxypropylcellulose) (HPC)): 102 % of control | T/C (dose: 25.0 mg/kg/injection, schedule: Q01DX005 (ip), vehicle: Klucel (hydroxypropylcellulose) (HPC)): 104 % of control | T/C (dose: 50.0 mg/kg/injection, schedule: Q01DX005 (ip), vehicle: Klucel (hydroxypropylcellulose) (HPC)): 100 % of control and 97 % of control | T/C (dose: 100.0 mg/kg/injection, schedule: Q01DX005 (ip), vehicle: Klucel (hydroxypropylcellulose) (HPC)): 87 % of control

CNc1cc(=O)[nH]c(-c2ccccc2)n1
T/C (dose: 45.0 mg/kg/injection, schedule: Q01DX009 (ip), vehicle: saline with Tween-80): 89 % of control | T/C (dose: 90.0 mg/kg/injection, schedule: Q01DX009 (ip), vehicle: saline with Tween-80): 97 % of control | T/C (dose: 180.0 mg/kg/injection, schedule: Q01DX009 (ip), vehicle: saline with Tween-80): 105 % of control

CCCCCCSc1nc2ccc(N=Cc3ccccc3O)cc2s1
T/C [2]: 94 % of control | T/C [3]: 87 % of control | T/C [6]: 90 % of control

NC(N)=NCCCC1NC(=O)C(Cc2ccc(O)cc2)NC1=O (stereo unspecified)
T/C [10]: 98 % of control and 93 % of control | T/C [11]: 100 % of control | T/C [12]: 100 % of control and 101 % of control
